According to ChEMBL document CHEMBL3044672, “N9- and N7-(Chloromethyl Phenymethyl)Chloropurine Derivatives from , '-Dichloroxylenes: Synthesis and Anticancer Activity” (2005):

What was measured:
Format in all cases: functional
HT-29 = assay: Cytotoxicity against Homo sapiens (human) HT-29 cells after 48 hr by sulforhodamine B assay; details: HT-29, 48 h; for CC50: read-out: LC50 (the source's name)
NCI-H322M = assay: Cytotoxicity against Homo sapiens (human) NCI-H322M cells after 48 hr by sulforhodamine B assay; details: for CC50: read-out: LC50 (the source's name)
LOX IMVI = assay: Cytotoxicity against Homo sapiens (human) LOXIMVI cells after 48 hr by sulforhodamine B assay
CCRF-CEM = assay: Cytotoxicity against Homo sapiens (human) CCRF-CEM cells after 48 hr by sulforhodamine B assay; details: for CC50: read-out: LC50 (the source's name)
NCI-H23 = assay: Cytotoxicity against Homo sapiens (human) NCI-H23 cells after 48 hr by sulforhodamine B assay; details: NCI-H23, 48 h; for CC50: read-out: LC50 (the source's name)
M14 = assay: Cytotoxicity against Homo sapiens (human) M14 cells after 48 hr by sulforhodamine B assay; details: M14, 48 h
T47D = assay: Cytotoxicity against Homo sapiens (human) T47D cells after 48 hr by sulforhodamine B assay
SF-295 = assay: Cytotoxicity against Homo sapiens (human) SF295 cells after 48 hr by sulforhodamine B assay; details: SF-295, 48 h; for CC50: read-out: LC50 (the source's name)
NCI-H460 = assay: Cytotoxicity against Homo sapiens (human) NCI-H460 cells after 48 hr by sulforhodamine B assay; details: NCI-H460, 48 h; for CC50: read-out: LC50 (the source's name)
SK-MEL-2 = assay: Cytotoxicity against Homo sapiens (human) SK-MEL-2 cells after 48 hr by sulforhodamine B assay; details: SK-MEL-2, 48 h
BT-549 = assay: Cytotoxicity against Homo sapiens (human) BT549 cells after 48 hr by sulforhodamine B assay; details: BT-549, 48 h
OVCAR-3 = assay: Cytotoxicity against Homo sapiens (human) OVCAR3 cells after 48 hr by sulforhodamine B assay; details: OVCAR-3, 48 h
MOLT-4 = assay: Cytotoxicity against Homo sapiens (human) MOLT4 cells after 48 hr by sulforhodamine B assay; details: MOLT-4, 48 h; for CC50: read-out: LC50 (the source's name)
SK-MEL-28 = assay: Cytotoxicity against Homo sapiens (human) SK-MEL-28 cells after 48 hr by sulforhodamine B assay; details: SK-MEL-28, 48 h
HCC 2998 = assay: Cytotoxicity against Homo sapiens (human) HCC2998 cells after 48 hr by sulforhodamine B assay; details: HCC 2998, 48 h; for CC50: read-out: LC50 (the source's name)
CAKI-1 = assay: Cytotoxicity against Homo sapiens (human) Caki1 cells after 48 hr by sulforhodamine B assay; details: CAKI-1, 48 h; for CC50: read-out: LC50 (the source's name)
SK-MEL-5 = assay: Cytotoxicity against Homo sapiens (human) SK-MEL-5 cells after 48 hr by sulforhodamine B assay; details: SK-MEL-5, 48 h
SF-268 = assay: Cytotoxicity against Homo sapiens (human) SF268 cells after 48 hr by sulforhodamine B assay; details: SF-268, 48 h; for CC50: read-out: LC50 (the source's name)
PC-3 = assay: Cytotoxicity against Homo sapiens (human) PC3 cells after 48 hr by sulforhodamine B assay; details: PC-3, 48 h
OVCAR-8 = assay: Cytotoxicity against Homo sapiens (human) OVCAR8 cells after 48 hr by sulforhodamine B assay; details: OVCAR-8, 48 h
IGROV-1 = assay: Cytotoxicity against Homo sapiens (human) IGROV1 cells after 48 hr by sulforhodamine B assay; details: IGROV-1, 48 h
DU-145 = assay: Cytotoxicity against Homo sapiens (human) DU145 cells after 48 hr by sulforhodamine B assay; details: DU-145, 48 h
EKVX = assay: Cytotoxicity against Homo sapiens (human) EKVX cells after 48 hr by sulforhodamine B assay; details: for CC50: read-out: LC50 (the source's name)
OVCAR-5 = assay: Cytotoxicity against Homo sapiens (human) OVCAR5 cells after 48 hr by sulforhodamine B assay; details: OVCAR-5, 48 h; for CC50: read-out: LC50 (the source's name)
MCF7 [1] = assay: Cytotoxicity against Homo sapiens (human) MCF7 cells after 48 hr by sulforhodamine B assay; details: MCF7, 48 h
[2] = Cytotoxicity against Homo sapiens (human) NCI-ADR-RES cells after 48 hr by sulforhodamine B assay
MCF7 [3] = assay: Cytotoxicity against Homo sapiens (human) MCF7 cells assessed as cell growth at 10^-4 M after 48 hr by Alamar blue assay; details: MCF7, 48 h, read-out: Activity
SK-OV-3 = assay: Cytotoxicity against Homo sapiens (human) SKOV3 cells after 48 hr by sulforhodamine B assay; details: SK-OV-3, 48 h
HOP-62 = assay: Cytotoxicity against Homo sapiens (human) HOP62 cells after 48 hr by sulforhodamine B assay; details: HOP-62, 48 h; for CC50: read-out: LC50 (the source's name)
UO-31 = assay: Cytotoxicity against Homo sapiens (human) UO31 cells after 48 hr by sulforhodamine B assay; details: UO-31, 48 h
U-251 = assay: Cytotoxicity against Homo sapiens (human) U251 cells after 48 hr by sulforhodamine B assay; details: U-251, 48 h
RXF 393 = assay: Cytotoxicity against Homo sapiens (human) RXF393 cells after 48 hr by sulforhodamine B assay; details: RXF 393, 48 h

## Nc1nc(Cl)c2ncn(Cc3cccc(CCl)c3)c2n1
HT-29
  GI50: 2.51 µM
  TGI: 9.77 µM
  CC50: 64.6 µM
NCI-H322M
  GI50: 10.5 µM
  TGI: 22.4 µM
  CC50: 46.8 µM
LOX IMVI
  GI50: 3.38 µM
  LC50: 81.3 µM
  TGI: 13.2 µM
CCRF-CEM
  GI50: 3.02 µM
  TGI: > 100 µM
  CC50: > 100 µM
NCI-H23
  GI50: 2.04 µM
  TGI: 5.01 µM
  CC50: 26.9 µM
M14
  GI50: 3.63 µM
  LC50: 41.7 µM
  TGI: 11.7 µM
T47D
  GI50: 6.02 µM
  LC50: > 100 µM
  TGI: 37.1 µM
SF-295
  GI50: 3.38 µM
  TGI: 14.5 µM
  CC50: 39.8 µM
NCI-H460
  GI50: 4.26 µM
  TGI: 15.8 µM
  CC50: 47.9 µM
SK-MEL-2
  GI50: 10.7 µM
  LC50 (concentration killing 50% of cells): > 100 µM
  TGI: 66.1 µM
BT-549
  GI50: 4.07 µM
  LC50 (50% lethal concentration): 58.9 µM
  TGI: 17.4 µM
OVCAR-3
  GI50: 0.72 µM
  LC50: 5.49 µM
  TGI: 2.29 µM
MOLT-4
  GI50: 4.78 µM
  TGI: > 100 µM
  CC50: > 100 µM
SK-MEL-28
  GI50: 4.46 µM
  LC50 (concentration killing 50% of cells): 74.1 µM
  TGI: 19.1 µM
HCC 2998
  GI50: 3.02 µM
  TGI: 4.89 µM
  CC50: 77.6 µM
CAKI-1
  GI50: 0.24 µM
  TGI: 1.51 µM
  CC50: 15.8 µM
SK-MEL-5
  GI50: 11 µM
  LC50: 51.3 µM
  TGI: 23.4 µM
SF-268
  GI50: 3.02 µM
  TGI: 10.2 µM
  CC50: 67.6 µM
PC-3
  GI50: 9.77 µM
  LC50 (concentration causing 50% cell kill): 63.1 µM
  TGI: 25.1 µM
OVCAR-8
  GI50: 2.29 µM
  LC50 (concentration killing 50% of cells): 53.7 µM
  TGI: 6.76 µM
IGROV-1
  GI50: 3.46 µM
  LC50: 55 µM
  TGI: 12.9 µM
DU-145
  GI50: 4.26 µM
  LC50: 40.7 µM
  TGI: 16.6 µM
EKVX
  GI50: 21.4 µM
  TGI: 36.3 µM
  CC50: 60.2 µM
OVCAR-5
  GI50: 11 µM
  TGI: 25.1 µM
  CC50: 57.5 µM
MCF7 [1]
  GI50: 2.39 µM
  LC50 (concentration killing 50% of cells): 53.7 µM
  TGI: 9.55 µM
[2]
  GI50: 4.89 µM
  LC50 (concentration killing 50% of cells): 75.9 µM
  TGI: 19.9 µM
MCF7 [3]
  growth at 100 µM: 0%
SK-OV-3
  GI50: 24 µM
  LC50: > 100 µM
  TGI: 67.6 µM
HOP-62
  GI50: 5.75 µM
  TGI: 20.4 µM
  CC50: 58.9 µM
UO-31
  GI50: 13.5 µM
  LC50 (concentration causing 50% net cell kill): 77.6 µM
  TGI: 32.4 µM
U-251
  GI50: 1.82 µM
  LC50 (concentration killing 50% of cells): 9.33 µM
  TGI: 4.07 µM

## ClCc1cccc(Cn2cnc3c(Cl)ncnc32)c1
HT-29
  GI50: 3.23 µM
  TGI: > 100 µM
  CC50: > 100 µM
NCI-H322M
  GI50: 1.9 µM
  TGI: 3.46 µM
  CC50: 6.45 µM
LOX IMVI
  GI50: 1.95 µM
  LC50: 27.5 µM
  TGI: 5.01 µM
CCRF-CEM
  GI50: 1.9 µM
  TGI: 3.89 µM
  CC50: 7.62 µM
NCI-H23
  GI50: 1.9 µM
  TGI: 4.07 µM
  CC50: 8.71 µM
M14
  GI50: 1.66 µM
  LC50: 6.6 µM
  TGI: 3.31 µM
T47D
  GI50: 3.02 µM
  LC50: > 100 µM
  TGI: 12.3 µM
SF-295
  GI50: 3.23 µM
  TGI: 8.7 µM
  CC50: 29.5 µM
NCI-H460
  GI50: 11.8 µM
  TGI: 36.3 µM
  CC50: > 100 µM
SK-MEL-2
  GI50: 21.9 µM
  LC50 (concentration killing 50% of cells): > 100 µM
  TGI: 51.3 µM
BT-549
  GI50: 15.1 µM
  LC50 (50% lethal concentration): 60.3 µM
  TGI: 30.2 µM
OVCAR-3
  GI50: 1.62 µM
  LC50: 5.75 µM
  TGI: 3.02 µM
RXF 393
  GI50: 2.29 µM
  TGI: 24 µM
RXF 393; read-out: LC50 (the source's name)
  CC50: 70.8 µM
MOLT-4
  GI50: 15.8 µM
  TGI: 37.1 µM
  CC50: 89.1 µM
SK-MEL-28
  GI50: 2.23 µM
  LC50 (concentration killing 50% of cells): 28.8 µM
  TGI: 5.75 µM
HCC 2998
  GI50: 0.4 µM
  TGI: 1.73 µM
  CC50: 5.49 µM
CAKI-1
  GI50: 1.54 µM
  TGI: 2.95 µM
  CC50: 5.62 µM
SK-MEL-5
  GI50: 2.29 µM
  LC50: 24.6 µM
  TGI: 6.31 µM
SF-268
  GI50: 3.54 µM
  TGI: 15.5 µM
  CC50: > 100 µM
PC-3
  GI50: 4.16 µM
  LC50 (concentration causing 50% cell kill): 67.6 µM
  TGI: 18.2 µM
OVCAR-8
  GI50: 21.9 µM
  LC50 (concentration killing 50% of cells): 79.4 µM
  TGI: 41.7 µM
IGROV-1
  GI50: 9.33 µM
  LC50: > 100 µM
  TGI: 33.9 µM
DU-145
  GI50: 11.2 µM
  LC50: 51.3 µM
  TGI: 24 µM
EKVX
  GI50: 18.6 µM
  TGI: 33.9 µM
  CC50: 63.1 µM
OVCAR-5
  GI50: 2.08 µM
  TGI: 4.36 µM
  CC50: 8.91 µM
MCF7 [1]
  GI50: 7.76 µM
  LC50 (concentration killing 50% of cells): > 100 µM
  TGI: 77.6 µM
[2]
  GI50: 2.45 µM
  LC50 (concentration killing 50% of cells): 37.1 µM
  TGI: 7.58 µM
SK-OV-3
  GI50: 3.31 µM
  LC50: 33.1 µM
  TGI: 10.5 µM
HOP-62
  GI50: 2.63 µM
  TGI: 5.12 µM
  CC50: 10.2 µM
UO-31
  GI50: 1.44 µM
  LC50 (concentration causing 50% net cell kill): 89.1 µM
  TGI: 36.3 µM
U-251
  GI50: 1.82 µM
  LC50 (concentration killing 50% of cells): 6.76 µM
  TGI: 3.46 µM
